The values that follow come from PubChem BioAssay (NCI).

Structures are written as SMILES.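 Following 48 hours of exposure in 96-well plates, responses at five concentrations were used to interpolate endpoints linearly. GI50 is the concentration that inhibits growth by half. At the TGI there is no net growth.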 A value given as a limit tells only on which side of the number the result lay.

Test systems include NCI-H522 lung; LOX IMVI melanoma; UACC-257 melanoma; SK-MEL-28 melanoma; CAKI-1 renal; M14 melanoma; SF-268 CNS; NCI/ADR-RES ovarian; 786-0 renal; PC-3 prostate.
Assay in all cases: NCI anticancer screen, dose series, 48 h

In the case of `COc1ccc(C(=O)c2cc(C)c(OC)c(C)c2)c(OC)c1N(C(=O)C(Cl)Cl)C(=O)C(Cl)Cl`, the GI50 in the assay on NCI-H522 lung is 0.0322 µM; in the assay with LOX IMVI melanoma, 0.159 µM; with UACC-257 melanoma it was above 69.4 µM; in the assay on SK-MEL-28 melanoma, 0.237 µM; in the assay with CAKI-1 renal it was 0.0415 µM; with M14 melanoma, 0.0338 µM. The GI50 with SF-268 CNS is 1.01 µM; in the assay on NCI/ADR-RES ovarian it was 0.032 µM; in the assay on 786-0 renal, 0.0455 µM; with PC-3 prostate, 0.0436 µM. In addition, the TGI in the assay on LOX IMVI melanoma, in the assay on UACC-257 melanoma, with SK-MEL-28 melanoma, in the assay on CAKI-1 renal, in the assay with M14 melanoma and in the assay on SF-268 CNS was above 100 µM each time. Besides, the TGI in the assay on 786-0 renal and with PC-3 prostate was above 100 µM in each case.
Regarding `NCCCC[C@@H]1NC(=O)[C@H]2CCCN2C(=O)[C@H](Cc2ccccc2)NC(=O)[C@H](Cc2ccccc2)CNC1=O`, the GI50 with NCI-H522 lung, in the assay with LOX IMVI melanoma, in the assay on UACC-257 melanoma, with SK-MEL-28 melanoma, in the assay on CAKI-1 renal and in the assay on M14 melanoma was above 100 µM each time. Moreover, the GI50 with SF-268 CNS, with NCI/ADR-RES ovarian, in the assay on 786-0 renal and with PC-3 prostate was above 100 µM in each case. Besides, the TGI with NCI-H522 lung, with LOX IMVI melanoma, in the assay with UACC-257 melanoma, in the assay on SK-MEL-28 melanoma, in the assay with CAKI-1 renal and with M14 melanoma was above 100 µM in each case. For the same compound, the TGI with SF-268 CNS, in the assay with NCI/ADR-RES ovarian, in the assay with 786-0 renal and with PC-3 prostate was above 100 µM each time.
For the compound `Clc1nc(Cl)c2ncn(Cc3cccc(COc4cccc(OCc5cccc(Cn6cnc7c(Cl)nc(Cl)nc76)c5)c4)c3)c2n1`, the GI50 in the assay on NCI-H522 lung was 41.1 µM; in the assay with LOX IMVI melanoma, 23.9 µM; in the assay with UACC-257 melanoma, 13.5 µM; in the assay with SK-MEL-28 melanoma it was 90.3 µM; in the assay on CAKI-1 renal it was above 100 µM; in the assay on M14 melanoma, 26.1 µM. In addition, the GI50 is above 100 µM with SF-268 CNS, 53.1 µM with NCI/ADR-RES ovarian, 74.8 µM with 786-0 renal and 14.6 µM with PC-3 prostate. Further, the TGI in the assay with NCI-H522 lung, in the assay on LOX IMVI melanoma, in the assay with UACC-257 melanoma, in the assay with SK-MEL-28 melanoma, in the assay on CAKI-1 renal and in the assay on M14 melanoma was above 100 µM throughout. Also, the TGI in the assay on SF-268 CNS is above 100 µM; in the assay with NCI/ADR-RES ovarian, above 100 µM; in the assay on 786-0 renal, above 100 µM; in the assay on PC-3 prostate it was 47 µM.
Consider `Cc1cc(C)c(C(=O)CC(=O)c2cccnc2)c(C)c1`, for which the GI50 in the assay with NCI-H522 lung was 13.4 µM; in the assay with LOX IMVI melanoma, 4.84 µM; in the assay on UACC-257 melanoma it was 27.2 µM; in the assay on SK-MEL-28 melanoma it was 14 µM; in the assay on CAKI-1 renal, 1.34 µM; in the assay on M14 melanoma, 5.31 µM. Further, the GI50 in the assay on SF-268 CNS is 10.5 µM; in the assay on NCI/ADR-RES ovarian, 2.29 µM; in the assay with 786-0 renal it was 9.45 µM; in the assay with PC-3 prostate, 8.73 µM. Besides, the TGI with NCI-H522 lung was above 100 µM; in the assay with LOX IMVI melanoma it was above 100 µM; in the assay on UACC-257 melanoma, above 100 µM; with SK-MEL-28 melanoma it was above 100 µM; in the assay with CAKI-1 renal, 5.52 µM; with M14 melanoma, 33.9 µM. For the same compound, the TGI in the assay with SF-268 CNS is above 100 µM; with NCI/ADR-RES ovarian it was 9.88 µM; in the assay with 786-0 renal, 50.1 µM; with PC-3 prostate it was above 100 µM.
As for `COC(=O)Nc1nc2ccc(Oc3ccc(NC(=O)Nc4ccccc4)cc3)cc2[nH]1`, the GI50 in the assay on NCI-H522 lung was 0.0686 µM; with LOX IMVI melanoma it was 0.178 µM; in the assay with UACC-257 melanoma it was 0.167 µM; in the assay with SK-MEL-28 melanoma it was 0.348 µM; in the assay on CAKI-1 renal, 3.4 µM; in the assay with M14 melanoma, 0.168 µM. For the same compound, the GI50 was 0.267 µM with SF-268 CNS, 0.391 µM with NCI/ADR-RES ovarian, 0.18 µM with 786-0 renal and 0.15 µM in the assay on PC-3 prostate. Moreover, the TGI in the assay with NCI-H522 lung was 0.667 µM; in the assay on LOX IMVI melanoma it was above 9.6 µM; in the assay on UACC-257 melanoma, above 14.8 µM; with SK-MEL-28 melanoma, 6.4 µM; with CAKI-1 renal, above 21.7 µM; in the assay on M14 melanoma, 2.6 µM. Moreover, the TGI with SF-268 CNS was above 14.5 µM; in the assay on NCI/ADR-RES ovarian, above 25 µM; in the assay on 786-0 renal, 5.05 µM; in the assay with PC-3 prostate it was above 9.6 µM.
Turning to `O=C(O)CC1OCC=C2CN3CCC45c6ccccc6NC4C1C2CC35` (stereo not drawn), the TGI in the assay on NCI-H522 lung, in the assay on LOX IMVI melanoma, in the assay on UACC-257 melanoma, in the assay on SK-MEL-28 melanoma, in the assay on CAKI-1 renal and with M14 melanoma was above 100 µM each time. Moreover, the TGI in the assay on SF-268 CNS, in the assay on NCI/ADR-RES ovarian, in the assay with 786-0 renal and with PC-3 prostate was above 100 µM throughout.
In the case of `NC(CC(=O)OCc1ccccc1)C(=O)OCc1ccccc1` (stereo not drawn), the TGI in the assay with NCI-H522 lung, with LOX IMVI melanoma, with UACC-257 melanoma, in the assay on SK-MEL-28 melanoma, in the assay on CAKI-1 renal and with M14 melanoma was above 100 µM in each case. Further, the TGI with SF-268 CNS, in the assay with NCI/ADR-RES ovarian, with 786-0 renal and with PC-3 prostate was above 100 µM in each case.
On to `CCc1[nH]c(=O)nc(N)c1-c1ccc(N2CCCCC2)c([N+](=O)[O-])c1`, for which the TGI with NCI-H522 lung, with LOX IMVI melanoma, with UACC-257 melanoma, in the assay with SK-MEL-28 melanoma, in the assay with CAKI-1 renal and with M14 melanoma was above 100 µM in each case. The TGI in the assay on SF-268 CNS, in the assay with NCI/ADR-RES ovarian, in the assay with 786-0 renal and with PC-3 prostate was above 100 µM throughout.
Regarding `CC12CCCC(O)C1CCC1=CC3(CCC12)SCCS3` (stereo not drawn), the TGI with NCI-H522 lung, in the assay with LOX IMVI melanoma, in the assay with UACC-257 melanoma, in the assay on SK-MEL-28 melanoma, in the assay on CAKI-1 renal and in the assay on M14 melanoma was above 10 µM in each case. Further, the TGI in the assay on SF-268 CNS, in the assay on NCI/ADR-RES ovarian, in the assay on 786-0 renal and in the assay with PC-3 prostate was above 10 µM each time.
